Experimental data as given in PubChem BioAssay (NCI).
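A five-concentration, 48-hour dose response in 96-well plates underlies each endpoint, interpolated linearly between surrounding concentrations. GI50 marks 50% less growth. TGI is the concentration that stops growth completely.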

The compounds below were run on SN12C renal (assay: DTP human tumour cell line panel, 48 h).

SMILES	TGI	GI50
C/C(CCn1[nH]c(=O)ccc1=O)=N\OCCCc1ccccc1	> 100 µM	–
Nc1nc(N)c2cc(CNc3ccc(C(=O)NC(CC(=O)O)C(=O)O)c(Cl)c3)ccc2n1 (centres undefined)	> 500 µM	0.05 µM
CCN(CC)c1cc2oc3cc(N)cc(=N)c-3nc2cc1C	6.13 µM	1.94 µM
CC(=O)OC1C2CCC1C1C2C2(Cl)C(Cl)=C(Cl)C1(Cl)C2(Cl)Cl (centres undefined)	28.4 µM	–
CC(C(=O)n1c2ccccc2c2ccccc21)N(c1ccccc1)c1ccccc1 (centres undefined)	41.4 µM	–
CCOC(=O)Cn1c(=O)n(C)c(=O)c2c1ncn2Cc1ccccc1	> 100 µM	–
CC(C)(C)OC(=O)N1N=NC2C1C1CC(OCc3ccccc3)(OCc3ccccc3)C2O1 (centres undefined)	> 100 µM	–
O=C1CSC(c2ccc(-c3nc4ccccc4s3)cc2)=N1	99.4 µM	36.9 µM
Cc1ncc([N+](=O)[O-])n1CCNS(=O)(=O)CCCn1ncnc1[N+](=O)[O-]	> 100 µM	–
CCC(=O)Nc1ccc(N=NN(C)C)cc1	> 100 µM	–
O=c1c2ccccc2nc(-c2ccccc2)n1NC(=S)Nc1ccccc1	> 100 µM	–
CCOC(=O)/C(=C/c1cccc(C#N)c1)N(CC)CC	> 100 µM	–
C=CCN1CC2CON(C(=O)C(OC)(c3ccccc3)C(F)(F)F)C2C1C(C)C (centres undefined)	–	41.9 µg/mL
O=S1(=O)OCCOS(=O)(=O)C1Cl	> 100 µM	–
Oc1ccc(Br)cc1C=Nc1ccc(N=Cc2cc(Br)ccc2O)cc1	> 100 µM	–
CCOc1ccccc1NC(=O)C(=O)Cc1nc2ccccc2s1	> 100 µM	–
CO/N=C(/C)c1cccc(Nc2cc(-c3ccccc3)nc3ccc(OC)cc23)c1	9.67 µM	2.9 µM
Cc1cccc(N=C2NC(=O)C(CC(=O)Nc3cccc(C)c3C)S2)c1 (centres undefined)	> 100 µM	–
CN(C)CCSc1nccc(-c2cc3ccccc3s2)n1	> 100 µM	–
O=C(O)CSc1n[nH]c(Cc2ccccc2)n1	> 100 µM	–
O=C1C(Cl)=C(Nc2ccccc2O)C(=O)N1Cc1ccccc1	29.9 µM	16.4 µM

These compounds were tested on K-562 leukemia (assay: DTP human tumour cell line panel, 48 h).

SMILES	GI50	TGI
CN1CCN(c2ccc(Nc3ncc4cc(C#N)c(=O)n(C5CCCC5)c4n3)cc2)CC1	1.25 µM	> 100 µM
C=C1CC[C@@H](C(C)C)C[C@@H]2[C@H]([C@H](O)C[C@]2(C)O)[C@@]2(C)CC[C@@H]1O2	15.8 µM	29.2 µM
OCC(O)CNc1ccnc2cc(Cl)ccc12 (centres undefined)	–	> 100 µM
Cc1cccc(C(C)C)c1NC(=O)C(=O)C(C(=O)c1ccccc1F)C1OC(=O)c2ccccc21 (centres undefined)	–	> 100 µM
O=C(N/N=C/c1c(Cl)cccc1Cl)c1ccc(C(F)(F)F)nc1Nc1cccc(C(F)(F)F)c1	0.491 µM	–
O=C(NO)c1ccc(CN(c2cnccn2)c2cnccn2)cc1	13 µM	> 100 µM
Cc1ccc(Nc2nnc(-c3ccc4c(c3)OCO4)o2)c(C)c1	–	> 100 µM
CCCCCc1ccc(S(=O)(=O)Nc2cc(-c3csc(NC(C)=O)n3)ccc2N2CCN(C)CC2)cc1	1.03 µM	3.4 µM
Cc1cccc(C)c1NC(=O)C(=O)CC(=O)c1cccc([N+](=O)[O-])c1	–	> 100 µM
Cc1ccc(S(=O)(=O)NC(=O)NC2=NC(C)(C)N(c3ccc(Cl)c(Cl)c3)C(N)=N2)cc1	–	> 100 µM
S=C1SC2=Nc3ccccc3CN2C2=NCCN12	32.8 µM	> 100 µM
O=C(O)CN(c1ccccc1)S(=O)(=O)c1ccc([N+](=O)[O-])cc1	–	> 100 µM
Clc1cc(Cl)cc(Nc2ccc3cc(OCCCN4CCOCC4)ccc3n2)c1	1.58 µM	4.42 µM
COc1ccc2c3c(Nc4ccc(/C(C)=N/O)cc4)[nH]c4ccccc4c-3c(N=O)c2c1	0.665 µM	2.8 µM
C/C(CCn1[nH]c(=O)ccc1=O)=N\OCCCc1ccccc1	–	> 100 µM
Nc1nc(N)c2cc(CNc3ccc(C(=O)NC(CC(=O)O)C(=O)O)c(Cl)c3)ccc2n1 (centres undefined)	0.05 µM	> 500 µM
CC(C(=O)n1c2ccccc2c2ccccc21)N(c1ccccc1)c1ccccc1 (centres undefined)	–	40.7 µM
CCOC(=O)Cn1c(=O)n(C)c(=O)c2c1ncn2Cc1ccccc1	–	> 100 µM
CC(C)(C)OC(=O)N1N=NC2C1C1CC(OCc3ccccc3)(OCc3ccccc3)C2O1 (centres undefined)	–	63.6 µM
O=C1CSC(c2ccc(-c3nc4ccccc4s3)cc2)=N1	16.7 µM	50.4 µM
Cc1ncc([N+](=O)[O-])n1CCNS(=O)(=O)CCCn1ncnc1[N+](=O)[O-]	–	> 100 µM
CCC(=O)Nc1ccc(N=NN(C)C)cc1	–	> 100 µM
O=c1c2ccccc2nc(-c2ccccc2)n1NC(=S)Nc1ccccc1	–	> 100 µM
CCOC(=O)/C(=C/c1cccc(C#N)c1)N(CC)CC	–	> 100 µM
O=S1(=O)OCCOS(=O)(=O)C1Cl	–	> 100 µM
Oc1ccc(Br)cc1C=Nc1ccc(N=Cc2cc(Br)ccc2O)cc1	–	> 100 µM
CO/N=C(/C)c1cccc(Nc2cc(-c3ccccc3)nc3ccc(OC)cc23)c1	2.72 µM	> 100 µM
O=C(O)CSc1n[nH]c(Cc2ccccc2)n1	–	> 100 µM
O=C1C(Cl)=C(Nc2ccccc2O)C(=O)N1Cc1ccccc1	15.5 µM	33.6 µM

The compounds below were run on U251 CNS (assay: DTP human tumour cell line panel, 48 h).

SMILES	GI50	TGI
CN1CCN(c2ccc(Nc3ncc4cc(C#N)c(=O)n(C5CCCC5)c4n3)cc2)CC1	1.74 µM	> 100 µM
C=C1CC[C@@H](C(C)C)C[C@@H]2[C@H]([C@H](O)C[C@]2(C)O)[C@@]2(C)CC[C@@H]1O2	16.9 µM	30.5 µM
Nc1ccc2[nH]cc(CCC(=O)O)c2c1	–	> 100 µM
OCC(O)CNc1ccnc2cc(Cl)ccc12 (centres undefined)	–	> 100 µM
Cc1cccc(C(C)C)c1NC(=O)C(=O)C(C(=O)c1ccccc1F)C1OC(=O)c2ccccc21 (centres undefined)	–	37.3 µM
O=C(N/N=C/c1c(Cl)cccc1Cl)c1ccc(C(F)(F)F)nc1Nc1cccc(C(F)(F)F)c1	0.588 µM	12.8 µM
O=C(NO)c1ccc(CN(c2cnccn2)c2cnccn2)cc1	7.74 µM	21.4 µM
Cc1ccc(Nc2nnc(-c3ccc4c(c3)OCO4)o2)c(C)c1	–	> 100 µM
CCCCCc1ccc(S(=O)(=O)Nc2cc(-c3csc(NC(C)=O)n3)ccc2N2CCN(C)CC2)cc1	3.78 µM	8.93 µM
Cc1cccc(C)c1NC(=O)C(=O)CC(=O)c1cccc([N+](=O)[O-])c1	–	> 100 µM
Cc1ccc(S(=O)(=O)NC(=O)NC2=NC(C)(C)N(c3ccc(Cl)c(Cl)c3)C(N)=N2)cc1	–	> 100 µM
S=C1SC2=Nc3ccccc3CN2C2=NCCN12	39.2 µM	> 100 µM
O=C(O)CN(c1ccccc1)S(=O)(=O)c1ccc([N+](=O)[O-])cc1	–	> 100 µM
COc1ccc2c3c(Nc4ccc(/C(C)=N/O)cc4)[nH]c4ccccc4c-3c(N=O)c2c1	2.31 µM	12.9 µM
CCN(CC)c1cc2oc3cc(N)cc(=N)c-3nc2cc1C	3.13 µM	14.7 µM
CC(=O)OC1C2CCC1C1C2C2(Cl)C(Cl)=C(Cl)C1(Cl)C2(Cl)Cl (centres undefined)	–	26.2 µM

SMILES	GI50	TGI
CC(C(=O)n1c2ccccc2c2ccccc21)N(c1ccccc1)c1ccccc1 (centres undefined)	–	34.7 µM
CCOC(=O)Cn1c(=O)n(C)c(=O)c2c1ncn2Cc1ccccc1	–	> 100 µM
CC(C)(C)OC(=O)N1N=NC2C1C1CC(OCc3ccccc3)(OCc3ccccc3)C2O1 (centres undefined)	–	> 100 µM
O=C1CSC(c2ccc(-c3nc4ccccc4s3)cc2)=N1	28 µM	> 100 µM
Cc1ncc([N+](=O)[O-])n1CCNS(=O)(=O)CCCn1ncnc1[N+](=O)[O-]	–	> 100 µM
CCC(=O)Nc1ccc(N=NN(C)C)cc1	–	> 100 µM
O=c1c2ccccc2nc(-c2ccccc2)n1NC(=S)Nc1ccccc1	–	> 100 µM
CCOC(=O)/C(=C/c1cccc(C#N)c1)N(CC)CC	–	> 100 µM
C=CCN1CC2CON(C(=O)C(OC)(c3ccccc3)C(F)(F)F)C2C1C(C)C (centres undefined)	29.8 µg/mL	–
Oc1ccc(Br)cc1C=Nc1ccc(N=Cc2cc(Br)ccc2O)cc1	–	> 100 µM
CCOc1ccccc1NC(=O)C(=O)Cc1nc2ccccc2s1	–	> 100 µM
CO/N=C(/C)c1cccc(Nc2cc(-c3ccccc3)nc3ccc(OC)cc23)c1	6.62 µM	23.7 µM
Cc1cccc(N=C2NC(=O)C(CC(=O)Nc3cccc(C)c3C)S2)c1 (centres undefined)	–	> 100 µM
CN(C)CCSc1nccc(-c2cc3ccccc3s2)n1	–	57.1 µM
O=C(O)CSc1n[nH]c(Cc2ccccc2)n1	–	> 100 µM
O=C1C(Cl)=C(Nc2ccccc2O)C(=O)N1Cc1ccccc1	19.2 µM	36.5 µM
